Laboratory results published in US20260297060A1, “COMPOUNDS FOR THE DEGRADATION OF MUTANT BRAF” (C4 THERAPEUTICS, INC., priority 2023, published 2026).

Test system: A375 human melanoma xenografts
Assay: In vivo therapeutic efficacy in A375 human melanoma xenografts (tumor volume, T/C, TGI), Example 14
Design: species or system human tumor in female BALB/c nude mice
Conditions: for Tumor volume: 100 mg/kg p.o. QD x 21 days
Protocol: Agents were tested in the A375 human melanoma xenografts. Compound 26 and Compound 141 were administered to BALB/c nude mice bearing A375 tumors from PG-DO and dosed via PO twice a day (BID) or third a day (TIP) or dosed P daily (QD) from PG-D. Dabrafenib was administered to BALB/c nude mice bearing A375 tumors from PG-D1 and dosed via P daily (QD). Compound 26 was dosed at 1.5 mg/kg (QD), 2 mg/kg (TID), 3 mg/kg (BID), 6 mg/kg (QD) and 10 mg/kg (BID) for 21 days. Compound 141 was dosed at 0.75 mg/kg (BID), 1 mg/kg (TID), 1.5 mg/kg (BID), 3 mg/kg (QD) and 5 mg/kg (BID) for 21 days. Dabrafenib was dosed at 100 mg/kg for 21 days. This study was non-GLP.
One hundred and thirty-eight female BALB/c nude Mus Musculus mice procured from Shanghai Lingchang Biological Science and Technology Co., LTD between the ages of six to eight weeks and with body weight between eighteen and twenty-two grams were used for the study. A spare mouse was also procured.
The A375 tumor cells were maintained in vitro in DMEM medium supplemented with 10% fetal bovine serum and 1% Penicillin-Streptomycin at 37° C. in an atmosphere of 5% CO2 in air. The tumor cells were routinely sub-cultured twice weekly. The cells growing in an exponential growth phase were harvested and counted for tumor inoculation.
Each mouse was inoculated subcutaneously at the right flank with A375 cells (5×10^6) in 0.2 mL of PBS supplemented with Matrigel (PBS: Matrigel=1:1) for tumor development. Animals were grouped for efficacy study on day 15 after tumor inoculation when the average tumor volume reached 220 mm^3. The test articles administration and the animal numbers in each group are shown in the above experimental Table 75.
At the time of routine monitoring, the animals were checked daily for any effects of tumor growth and treatments on normal behavior such as mobility, food and water consumption (by looking only), body weight gain/loss (body weights were measured twice weekly), eye/hair matting and any other abnormal effect as stated in the protocol. Death and observed clinical signs were recorded on the basis of the numbers of animals within each subset.
Prior to the onset of drug treatment, mice were measured for tumor size in two dimensions using a caliper, and the tumor volume (mm^3) was calculated using formula V=0.5 a×b^2 where a and b are the long and short diameters of the tumor in mm, respectively. Mice were randomized into different treatment groups based on the tumor volume.
The major endpoint was to see if the tumor growth could be delayed or mice could be cured. The tumor size was then used for calculations of T/C value. The T/C value (in percent) is an indication of antitumor effectiveness; T and C are the mean volumes of the treated and control groups, respectively on specified day.
TGI was calculated for each group using the formula: TGI (%)=[1−(Ti−T0)/(Ci−C0)]×100; Ti is the average tumor volume of a treatment group on a given day, T0 is the average tumor volume of the treatment group on the day of treatment start, Ci is the average tumor volume of the vehicle control group on the same day with Ti, and C0 is the average tumor volume of the vehicle group on the day of treatment start.
A one-way ANOVA followed by Dunnett's multiple comparison test was performed to compare tumor volume among vehicle group (Group 1) and treatment groups (Group 2-Group 12). All data were analyzed using GraphPad Prism, ns indicates p>0.05, * indicates p<0.05, ** indicates p<0.01, *** indicates p<0.001 and **** indicates p<0.0001.
Tumor growth inhibition of Compound 26, Compound 141 and dabrafenib in the treatment of female BALB/c nude mice bearing A375 xenografts was calculated based on tumor volume measured on […]. TGI and T/C were calculated respectively and the data are detailed in Table 82.

[1] = 100 mg/kg, p.o., QD × 21 days, PG-D21

With `CC(C)(C)c1nc(-c2cccc(NS(=O)(=O)c3c(F)cccc3F)c2F)c(-c2ccnc(N)n2)s1` [Dabrafenib, dabrafenib, reference compound] the Tumor volume (day 0, mean ± SEM) was 220 ± 15 mm^3, the Tumor volume (day 4, mean ± SEM) was 367 ± 24 mm^3 and the Tumor volume (day 7, mean ± SEM) was 421 ± 28 mm^3. It also gave a Tumor volume (day 11, mean ± SEM) of 560 ± 38 mm^3, a Tumor volume (day 14, mean ± SEM) of 756 ± 54 mm^3 and a Tumor volume (day 18, mean ± SEM) of 1031 ± 79 mm^3. For the same compound, the Tumor volume (day 21, mean ± SEM) was 1095 ± 86 mm^3, the Tumor volume (day 25 (dosing-free regrowth), mean ± SEM) was 1007 ± 137 mm^3 and the Tumor volume (day 28 (dosing-free regrowth), mean ± SEM) was 1366 ± 209 mm^3. The Tumor volume (day 32 (dosing-free regrowth), mean ± SEM) was 1679 ± 323 mm^3, the Tumor volume (day 35 (dosing-free regrowth), mean ± SEM) was 1711 ± 245 mm^3 and the Tumor volume (day 39 (dosing-free regrowth), mean ± SEM) was 2116 ± 279 mm^3. It also gave a Tumor volume (day 42 (dosing-free regrowth), mean ± SEM) of 2634 ± 337 mm^3, a Tumor volume (day 46 (dosing-free regrowth), mean ± SEM) of 2535 ± 321 mm^3 and a Tumor volume (day 49 (dosing-free regrowth), mean ± SEM) of 3163 ± 478 mm^3. The Tumor volume (day 53 (dosing-free regrowth)) was 3001 mm^3, the “Tumor Size on PG-D21 (Mean ± SEM)” value (100 mg/kg p.o. QD × 21 days) was 1095 ± 86 mm^3 and the T/C [1] was 58.1%. It also gave a TGI [1] of 47.4%.
